Source: US20180200257A1, “METHODS FOR THE TREATMENT OF INFLAMMATORY DISORDERS” (Galapagos NV, priority 2015, published 2018)

Tested on: subjects with moderately to severely active RA who have an inadequate response to methotrexate (MTX)
Experiment: Study 2 (monotherapy) - Subject VAS mean changes (ACR patient assessment)
Assay type: in vivo, human
Conditions: LOCF, 12 weeks results
Description: The scale is 100 mm, the decrease in mm is shown. […] (dotted line), 100 mg q.d. (dashed line) or 200 mg q.d. (dark solid line). The results shown in the figures are calculated using Last-Observation-Carried-Forward (LOCF), which handles missing data by assigning the value recorded at the patient's last visit to all subsequent missed visits.
Randomized, double-blind, placebo-controlled, multicenter, phase IIb dose finding study of Compound 1 (dosed as a [Compound 1:HCl:3H2O]) administered for 24 weeks as monotherapy to subjects with moderately to severely active rheumatoid arthritis who have an inadequate response to methotrexate alone
Double-blind, placebo-controlled, monotherapy study in subjects with moderately to severely active RA who have an inadequate response to methotrexate (MTX) (oral or parenteral).
280 subjects randomized to one of 3 doses of Compound 1 (dosed as a [Compound 1:HCl:3H2O]) or to placebo, given once daily (q.d.).
Twelve weeks of treatment with Compound 1 (dosed as a [Compound 1:HCl:3H2O]) at 50 mg, 100 mg, or 200 mg q.d.; or placebo. At Week 12, all subjects on placebo and the subjects on the 50 mg dose who have not achieved 20% improvement in swollen joint count (SJC66) and tender joint count (TJC68) will be assigned to 100 mg q.d. in a blinded fashion and will continue treatment until Week 24. Subjects in the other groups will maintain their randomized treatment until Week 24.
Firstly, the patient is asked to make a vertical mark on a 100 mm Visual Analog Scale (VAS) corresponding to their general health or global disease activity on a touch screen to measure the VAS value, which is used in the formula below.
The American College of Rheumatology (ACR) composite score, which evaluates clinical improvement relative to an initial assessment, is a commonly accepted efficacy end point for clinical trials in patients with rheumatoid arthritis. The ACR score correspond to a percentage improvement in pre-set parameters, and therefore measures the evolution of the disease in a patient. For example, ACR20 denotes at least 20% improvement in tender and swollen joint counts and in three of the following end points: global assessment by the patient, global assessment by the doctor, C reactive protein (CRP), patient's pain Visual Analogue Scale and Health Assessment Questionnaire Score. The number of swollen joints, ESR and CRP correlate with radiographic progression of joint damage, whereas tender joint counts, as well as global assessments by doctors and patients, and patients' reports of pain, are sensitive to change in clinical outcomes. Physical function, as assessed by the Health Assessment Questionnaire Score, is a potent predictor of the risk of disability in rheumatoid arthritis (Felson and American College of Rheumatology Committee to Reevaluate Improvement Criteria, 2007; Felson et al., 1993).

For `O=C(Nc1nc2cccc(-c3ccc(CN4CCS(=O)(=O)CC4)cc3)n2n1)C1CC1` [Compound 1, cyclopropanecarboxylic acid {5-[4-(1,1-dioxo-thiomorpholin-4-ylmethyl)-phenyl]-[1,2,4]triazolo[1,5-a]pyridin-2-yl}-amide], the “Subject VAS mean changes (ACR patient assessment)” value (“Subject VAS mean changes” below) (50 mg q.d., week 0) was 0.0%, the “Subject VAS mean changes” value (50 mg q.d., week 1) was −12.3% and the “Subject VAS mean changes” value (50 mg q.d., week 2) was −17.3%. The “Subject VAS mean changes” value (50 mg q.d., week 4) was −19.3%, the “Subject VAS mean changes” value (50 mg q.d., week 8) was −23.6% and the “Subject VAS mean changes” value (50 mg q.d., week 12) was −27.4%. The “Subject VAS mean changes” value (100 mg q.d., week 0) was 0.0%, the “Subject VAS mean changes” value (100 mg q.d., week 1) was −12.2% and the “Subject VAS mean changes” value (100 mg q.d., week 2) was −17.2%. For the same molecule, the “Subject VAS mean changes” value (100 mg q.d., week 4) was −21.3%, the “Subject VAS mean changes” value (100 mg q.d., week 8) was −29.2% and the “Subject VAS mean changes” value (100 mg q.d., week 12) was −29.8%. The “Subject VAS mean changes” value (200 mg q.d., week 0) was 0.0%, the “Subject VAS mean changes” value (200 mg q.d., week 1) was −14.8% and the “Subject VAS mean changes” value (200 mg q.d., week 2) was −19.9%. The “Subject VAS mean changes” value (200 mg q.d., week 4) was −25.0%, the “Subject VAS mean changes” value (200 mg q.d., week 8) was −30.3% and the “Subject VAS mean changes” value (200 mg q.d., week 12) was −28.8%.
